In patent publication US20260297016A1, “THERAPEUTIC COMPOUNDS” (REGENTS OF THE UNIVERSITY OF MINNESOTA, priority 2023, published 2026):
Entries after “also recorded” stand apart in the source; their conditions may differ.

Experiments:
661 W cells [1] = details: 12.5 μM, 2 hours, H2O2 500 μM, 24 hours, n=6
661 W cells [2] = experiment: 4-HNE-induced ROS production in 661 W cells; details: 12.5 μM, 2 hours, 4-HNE 10 μM, 24 hours, n=6
661 W cells [3] = experiment: Viability of 661 W cells after H2O2 (trypan blue exclusion)
HMC3 cells = details: 12.5 μM, 200 μM TBHP
661 W cells [4] = experiment: Viability of 661 W cells after 4-HNE (trypan blue exclusion)
STING = target: T1, STING (Homo sapiens, UniProt Q86WV6, G230A/H232R/R293Q/R71H); experiment: IRF-Lucia Reporter STING Inhibition Assay (THP-1 Lucia ISG cells); type: cell-based; details: 1 μM 2,3-cGAMP, 20 hours
T1 construct: THP-1 Lucia ISG cells (InvivoGen, thpl-isg); host or cells: THP-1 Lucia ISG cells
Protocol: IRF-Lucia Reporter STING Inhibition Assay. […] Cells were incubated at 37° C. in a 5% CO2 atmosphere with varying concentrations of test compound for 1.5 hours, followed by treatment with 1 μM 2,3-cGAMP (InvivoGen, tlrl-nacga23-02) and incubated for 20 hours. A 20 μL aliquot of cell suspension was added to 50 μL. QUANTI-Luc™ reagent (InvivoGen, rep-qlc4lg2), and the resulting luminescence is measured by a GloMax Explorer (Promega) with a 0.1 second read time.

PPARα = details: cited from earlier work
[5] = tested on: patients with type 2 diabetes; details: orally administered, FIELD and ACCORD; cited from earlier work
PPAR subtypes = details: cited from earlier work

T1 sequence (Q86WV6 whole entry R71H/G230A/H232R/R293Q): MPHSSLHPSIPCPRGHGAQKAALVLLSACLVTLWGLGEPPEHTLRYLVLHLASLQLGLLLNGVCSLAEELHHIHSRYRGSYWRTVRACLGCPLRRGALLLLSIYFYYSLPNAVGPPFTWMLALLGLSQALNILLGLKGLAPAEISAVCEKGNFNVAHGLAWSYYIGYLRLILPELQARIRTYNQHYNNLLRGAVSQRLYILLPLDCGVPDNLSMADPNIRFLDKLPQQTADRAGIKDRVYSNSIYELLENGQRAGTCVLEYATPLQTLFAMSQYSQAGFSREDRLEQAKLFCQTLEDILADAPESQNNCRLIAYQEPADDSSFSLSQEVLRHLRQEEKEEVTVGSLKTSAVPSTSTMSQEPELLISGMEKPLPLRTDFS

| Structure (SMILES) | % STING INHIBITION, % at 12.5 μm (STING) | % STING INHIBITION, % at 25 μm (STING) | % STING INHIBITION, % at 50 μm (STING) | further results |
| --- | --- | --- | --- | --- |
| O=C(Nc1ccc(O)c(NS(=O)(=O)c2ccc(F)cc2)c1)c1ccc(-c2ccccc2)cc1 [SN-011] | – | – | – | H2O2-induced ROS production (661 W cells [1]): the difference between SN011 and Example 17 is less pronounced; 4-HNE-induced production of ROS (661 W cells [2]): the difference between SN011 and Example 17 is less pronounced; cell viability after H2O2 (661 W cells [3]; 1 μM and 10 μM, H2O2 500 μM, 24 hours, n=3): fails to show a dose-response improvement between 1 μM and 10 μM; also recorded: Improvement in cell viability; cell viability after H2O2 (661 W cells [3]; 1 μM, SN-011 vs Example 31): no significant difference; TBHP-induced production of ROS (oxidative stress) (HMC3 cells): greater reduction in oxidative stress than PPARα agonism (Example 31 (BH400); cell viability after 4-HNE (661 W cells [4]; 1 μM and 10 μM, 4-HNE 10 μM, 24 hr, n=3): fails to show a dose-response improvement between 1 μM and 10 μM; also recorded: Improvement in cell viability; cell viability after 4-HNE (661 W cells [4]; 1 μM, SN-011 vs Example 31): no significant difference |
| O=C(O)c1cc(NCc2ccc(-c3ccccc3)cc2)ccc1O [Example 37, 5-(([1,1′-Biphenyl]-4-ylmethyl)amino)-2-hydroxybenzoic acid] | 0% | 28% | 66% | – |
| N#Cc1cc(NCc2ccc(-c3ccc(F)cc3)cc2)ccc1O [Example 47, 5-(((4′-Fluoro-[1,1′-biphenyl]-4-yl)methyl)amino)-2-hydroxybenzonitrile] | 40% | 80% | 99% | – |
| O=C(O)c1cc(NCc2ccc(-c3ccc(F)c([N+](=O)[O-])c3)cc2)ccc1O [Example 38, 5-(((4′-Fluoro-3′-nitro-[1,1′-biphenyl]-4-yl)methyl)amino)-2-hydroxybenzoic acid] | 0% | 39% | 90% | – |
| Cc1cc(-c2ccc(CNc3ccc(O)c(C(=O)O)c3)cc2)ccc1F [Example 44, 5-(((4′-Fluoro-3′-methyl-[1,1′-biphenyl]-4-yl)methyl)amino)-2-hydroxybenzoic acid] | 0% | 12% | 81% | – |
| COc1ccc(NCc2ccc(-c3ccc(F)cc3)cc2)cc1C(=O)O [Example 46, 5-(((4′-fluoro-[1,1′-biphenyl]-4-yl)methyl)amino)-2-methoxybenzoic acid] | 9% | 31% | 53% | – |
| COc1ccc(-c2ccc(CNc3ccc(O)c(C(=O)O)c3)cc2)cc1 [Example 33] | 0% | 0% | 0% | – |
| CC(C)(Oc1ccc(C(=O)c2ccc(Cl)cc2)cc1)C(=O)O [fenofibric acid] | – | – | – | agonism of PPARα by major metabolite (PPARα; major metabolite of fenofibrate): agonism of PPARα |
| Oc1ccc(NCc2ccc(-c3ccc(F)cc3)cc2)cc1-c1nnn[nH]1 [Example 48] | 0% | 32% | 77% | – |
| CS(=O)(=O)c1ccc(-c2ccc(CNc3ccc(O)c(C(=O)O)c3)cc2)cc1 [Example 34, 2-Hydroxy-5-(((4′-(methylsulfonyl)-[1,1′-biphenyl]-4-yl)methyl)amino)benzoic acid] | 0% | 0% | 0% | – |
| COc1ccc(NCc2ccc(-c3ccc(F)cc3)cc2)cc1C#N [Example 43, 5-(((4′-Fluoro-[1,1′-biphenyl]-4-yl)methyl)amino)-2-methoxybenzonitrile] | 0% | 0% | 0% | – |
| CC(C)OC(=O)C(C)(C)Oc1ccc(C(=O)c2ccc(Cl)cc2)cc1 [fenofibrate] | – | – | – | progression of DR and other microvascular endpoints [5]: significantly reduced the progression of DR and other microvascular endpoints; affinity for PPARα (PPARα): low affinity for PPARα; selectivity among PPAR subtypes (PPAR subtypes): lack of selectivity among PPAR subtypes |
| CC(C)(C)c1ccc(-c2ccc(CNc3ccc(O)c(C(=O)O)c3)cc2)cc1 [Example 36, 5-(((4′-(tert-Butyl)-[1,1′-biphenyl]-4-yl)methyl)amino)-2-hydroxybenzoic acid] | 0% | 0% | >95% | – |
| O=C(O)c1cc(NCc2ccc(-c3ccc(O)cc3)cc2)ccc1O [Example 35, 2-Hydroxy-5-(((4′-hydroxy-[1,1′-biphenyl]-4-yl)methyl)amino)benzoic acid] | 0% | 0% | 0% | – |
| Cc1cc(F)ccc1-c1ccc(CNc2ccc(O)c(C(=O)O)c2)cc1 [Example 41, 5-(((4′-Fluoro-2′-methyl-[1,1′-biphenyl]-4-yl)methyl)amino)-2-hydroxybenzoic acid] | 25% | 47% | 80% | – |
